Marks after values point to notes of the source that are not given here.
Legend:
[1] = test system: xerostomia (dry mouth) outpatients; assay: Saxon test, amount of secreted saliva, coenzyme Q10 capsule intake in patients with xerostomia; assay type: in vivo, human; details: for Amount of secreted saliva, Increased amount: difference after minus before one-month intake; for Amount of secreted saliva, After intake / Amount of secreted saliva, Before intake: group average; for Amount of secreted saliva, After intake: after one 100 mg capsule every day for one month; for Amount of secreted saliva, Before intake: before intake of one 100 mg capsule every day for one month
Description: A test subject chews a piece of gauze for 2 minutes. The weight of the gauze piece has been measured in advance. After the 2-minute chewing, the weight of the gauze is measured. An amount of secreted saliva is calculated as a difference between the weights of the gauze piece before and after the 2-minute chewing.
In total 23 xerostomia (dry mouth) outpatients (23 females including 21 Sjogren syndrome patients) were divided into three groups. To one group consisting of 9 patients, one oxidized coenzyme Q10-containing capsule having the composition illustrated in Table 1 (Test food 1, 240 mg per capsule) was administered every day for one month. To another group consisting of another 9 patients, one reduced coenzyme Q10-containing capsule having the composition shown in Table 1 (Test food 2, 240 mg per capsule) was administered every day for one month. The amount of secreted saliva was measured for each group before and after the intake. To the other group consisting of remaining 5 patients, one placebo capsule (Control food, 240 mg per capsule) was administered every day for one month. The amount of secreted saliva was similarly measured before and after the intake.
(§1) The amount of secreted saliva was measured by Saxon test. Namely, a test subject chewed a piece of gauze for 2 minutes. The weight of the gauze piece had been measured in advance. After the 2-minute chewing, the weight of the gauze piece was measured. The amount of secreted saliva was calculated as a difference between the weights of the gauze piece before and after the 2-minute chewing. In the present example, those whose amount of secreted saliva measured by Saxon test was 2.0 g/2 min. or less were determined as xerostomia patients, and those whose amount of secreted saliva was more than that were determined as healthy persons. Tables 2 and 3 illustrate the average values of all subjects of each group.

[2] = test system: healthy persons; assay: Saxon test, amount of secreted saliva, coenzyme Q10 capsule intake in healthy persons; assay type: in vivo, human; details: for Amount of secreted saliva, Increased amount: difference after minus before one-month intake; for Amount of secreted saliva, After intake / Amount of secreted saliva, Before intake: group average; for Amount of secreted saliva, After intake: after one 100 mg capsule every day for one month; for Amount of secreted saliva, Before intake: before intake of one 100 mg capsule every day for one month; for Significant or excessive increase of secreted saliva before versus after intake: one capsule every day for one month
Description: as §1
In total, 57 healthy persons (12 males, 45 females) were collected as volunteers. One oxidized coenzyme Q10-containing capsule having the composition illustrated in Table 1 (Test food 1, 240 mg per capsule) was administered every day for one month to a group consisting of 22 healthy persons (5 males, 17 females), and one reduced coenzyme Q10-containing capsule having the composition illustrated in Table 1 (Test food 2, 240 mg per capsule) was administered every day for one month to another group consisting of 22 healthy persons (5 males, 17 females). The amount of secreted saliva was measured for each group before and after the intake by the same procedure as that in Example 1. To remaining 13 healthy persons (2 males, 11 females), one placebo capsule (Control food, 240 mg per capsule) was administered every day for one month. The amount of secreted saliva was measured before and after the intake.

[3] = test system: rats; details: 52 consecutive weeks, 1.2 g/kg/day; cited from earlier work
[4] = test system: Parkinson's disease model mice; details: Non-Patent Document 2; cited from earlier work

Compound | Amount of secreted saliva, Increased amount [1] [g/2 min.] | Amount of secreted saliva, Increased amount ([1]; listed as reduced coenzyme Q10) [g/2 min.] | Amount of secreted saliva, After intake [1] | Amount of secreted saliva, After intake ([1]; listed as reduced coenzyme Q10) [g/2 min.] | Amount of secreted saliva, Before intake [1] [g/2 min.] | Comparison of salivary secretion-increasing effect ([1]; reduced versus oxidized coenzyme Q10 capsule) | Amount of secreted saliva, Increased amount [2] [g/2 min.] | Amount of secreted saliva, After intake [2] [g/2 min.] | Amount of secreted saliva, Before intake [2] [g/2 min.] | Significant or excessive increase of secreted saliva before versus after intake [2] | Amount of secreted saliva, After intake ([1]; listed as oxidized coenzyme Q10) [g/2 min.] | Toxicity [3] | Effect on conditions of Parkinson's disease model mice [4]
COc1c(O)c(C)c(C/C=C(\C)CC/C=C(\C)CC/C=C(\C)CC/C=C(\C)CC/C=C(\C)CC/C=C(\C)CC/C=C(\C)CC/C=C(\C)CC/C=C(\C)CCC=C(C)C)c(O)c1OC [Reduced coenzyme Q10] | 0.70 | 0.7 | 1.52* g/2 min. | 1.52 | 0.82 | higher effects than oxidized coenzyme Q10 | 0.10 | 3.54 | 3.44 | None of the oxidized coenzyme Q10 capsule administration group, the reduced coenzyme Q10 capsule administration group and the placebo capsule administration group showed a significant or excessive increase |  |  | 
COC1=C(OC)C(=O)C(C/C=C(\C)CC/C=C(\C)CC/C=C(\C)CC/C=C(\C)CC/C=C(\C)CC/C=C(\C)CC/C=C(\C)CC/C=C(\C)CC/C=C(\C)CCC=C(C)C)=C(C)C1=O [Oxidized coenzyme Q10] | 0.59 |  | 1.28* g/2 min. |  | 0.69 |  | 0.43 | 6.16 | 5.73 | None of the oxidized coenzyme Q10 capsule administration group, the reduced coenzyme Q10 capsule administration group and the placebo capsule administration group showed a significant or excessive increase | 1.28 |  | 
ubiquinone [Oxidized coenzyme Q] |  |  |  |  |  |  |  |  |  |  |  | no evidence of toxicity | effects to improve conditions

Reference: patent US8173711B2, “Agent for relief or prevention of xerostomia” (Kaneka Corporation, priority 2007, dated 2012)
